Structures are written as SMILES. Where only a bound is given, the exact number is not on record here.

Usually IC50 stands for the midpoint of a concentration-inhibition curve.

Assay [1] addresses T1, Toll-like receptor 4 (Mus musculus, UniProt Q9QUK6).
T1 sequence (Q9QUK6 whole entry): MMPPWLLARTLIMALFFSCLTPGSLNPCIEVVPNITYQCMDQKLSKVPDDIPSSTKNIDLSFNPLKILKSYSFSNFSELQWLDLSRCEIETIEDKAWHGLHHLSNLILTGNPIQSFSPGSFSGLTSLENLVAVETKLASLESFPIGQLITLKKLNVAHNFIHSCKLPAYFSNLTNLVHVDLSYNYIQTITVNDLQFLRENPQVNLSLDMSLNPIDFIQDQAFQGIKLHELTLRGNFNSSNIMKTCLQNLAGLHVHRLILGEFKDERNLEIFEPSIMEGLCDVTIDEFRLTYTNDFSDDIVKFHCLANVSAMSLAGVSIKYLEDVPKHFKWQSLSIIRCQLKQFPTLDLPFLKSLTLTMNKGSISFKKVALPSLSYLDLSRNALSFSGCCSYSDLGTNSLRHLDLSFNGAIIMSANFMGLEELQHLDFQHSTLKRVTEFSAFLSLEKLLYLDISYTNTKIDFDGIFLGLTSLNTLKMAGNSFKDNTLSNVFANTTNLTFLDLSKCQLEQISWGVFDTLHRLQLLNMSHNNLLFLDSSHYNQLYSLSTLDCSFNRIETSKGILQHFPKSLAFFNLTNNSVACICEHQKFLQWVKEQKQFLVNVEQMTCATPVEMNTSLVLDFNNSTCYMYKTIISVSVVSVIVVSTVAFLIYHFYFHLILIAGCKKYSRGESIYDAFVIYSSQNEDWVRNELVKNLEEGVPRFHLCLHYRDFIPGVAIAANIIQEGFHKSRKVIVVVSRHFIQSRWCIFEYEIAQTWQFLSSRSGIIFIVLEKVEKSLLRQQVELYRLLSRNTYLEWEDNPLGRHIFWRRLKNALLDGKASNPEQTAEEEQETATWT
Description: Antagonist activity against TLR4 in mouse BV2 cells assessed as inhibition of LPS-induced nitric oxide production incubated for 24 hrs by 2,3-diaminonaphthalene dye based assay

Assay [2] is described as follows: Cytotoxicity against mouse BV2 cells assessed as reduction in viability by crystal violet staining method. The settings on record: BV-2.

For the compound `Oc1ccc2c(c1)[C@]13CCCC[C@]1(O)[C@H](C2)N(CC1CC1)CC3`, the IC50 came out at 48.9 µM in assay [1] and 366 µM in assay [2].

On to `O=C1CC[C@]2(O)[C@@H]3Cc4ccc(O)c5c4[C@]2(CCN3CCc2ccccc2F)[C@@H]1O5`, for which the values for the IC50 in assay [1] and in assay [2] were 1.8 µM and 65.7 µM, respectively.

Consider `Oc1ccc2c3c1O[C@@H]1[C@@H](O)CC[C@]4(O)[C@H](C2)N(CC2CC2)CC[C@@]314`, for which the results for the IC50 in assay [1] and in assay [2] were 243 µM and more than 400 µM, respectively.

With `CCCCN1CC[C@@]23c4c5ccc(O)c4O[C@@H]2C(=O)CC[C@]3(O)[C@@H]1C5`, the IC50 in assay [1] is 24.8 µM; in assay [2], more than 200 µM.

For the compound `CCCCCCCN1CC[C@@]23c4c5ccc(O)c4O[C@@H]2C(=O)CC[C@]3(O)[C@@H]1C5`, the IC50 in assay [1] was found to be 3 µM; in assay [2] it was 68.5 µM.

`O=C1CC[C@]2(O)[C@@H]3Cc4ccc(O)cc4[C@]2(CCN3CC2CC2)C1`: the IC50 in assay [1] was 118 µM; in assay [2], more than 400 µM.

With `CCCCCCCCN1CC[C@@]23c4c5ccc(O)c4O[C@@H]2C(=O)CC[C@]3(O)[C@@H]1C5`, the half-inhibitory concentration (IC50) in assay [1] is 1.7 µM.

Turning to `O=C1CC[C@]2(O)[C@@H]3Cc4ccc(O)c5c4[C@]2(CCN3CCCCCc2ccccc2)[C@@H]1O5`, the IC50 in assay [1] is 1.7 µM; in assay [2], 26.8 µM.

Turning to `CCCCCCN1CC[C@@]23C=CCC[C@]2(O)[C@@H]1Cc1ccc(O)cc13`, the IC50 was 22.5 µM in assay [1] and 155 µM in assay [2].

On to `Oc1ccc2c3c1O[C@@H]1[C@H](O)CC[C@]4(O)[C@H](C2)N(CC2CC2)CC[C@@]314`, for which the IC50 in assay [1] was 144 µM; in assay [2], more than 400 µM.

With `O=C1CC[C@]2(O)[C@@H]3Cc4ccc(O)c5c4[C@]2(CCN3CCc2ccccc2)[C@@H]1O5`, the IC50 in assay [1] is 1.4 µM; in assay [2], 141 µM.

As for `CCCCCN1CC[C@@]23c4c5ccc(O)c4O[C@@H]2C(=O)CC[C@]3(O)[C@@H]1C5`, the half-maximal inhibitory concentration (IC50) in assay [1] is 7.5 µM; in assay [2] it was more than 200 µM.

As for `O=C1CC[C@]2(O)[C@@H]3Cc4ccc(O)c5c4[C@]2(CCN3CCCCc2ccccc2)[C@@H]1O5`, the half-inhibitory concentration (IC50) in assay [1] is 1.2 µM; in assay [2] it was 37.1 µM.

With `O=C1CC[C@]2(O)[C@@H]3Cc4ccc(O)c5c4[C@]2(CCN3CCCc2ccccc2)[C@@H]1O5`, the IC50 in assay [1] was found to be 1.4 µM; in assay [2], 69.3 µM.

Turning to `O=C1CC[C@]2(O)CN(CC3CC3)CC[C@]23c2cccc(O)c2O[C@H]13`, the results for the concentration for half-maximal inhibition (IC50) in assay [1] and in assay [2] were 76.2 µM and more than 400 µM, respectively.

The compound `CCCCCCN1CC[C@@]23CCCC[C@]2(O)[C@@H]1Cc1ccc(O)cc13` had an IC50 in assay [1] of 5.2 µM.

As to `CCCCCCN1CC[C@@]23c4c5ccc(O)c4O[C@@H]2C(=O)CC[C@]3(O)[C@@H]1C5`, the IC50 in assay [1] is 6.7 µM; in assay [2], 121 µM.

Compound `COc1ccc2c3c1O[C@@H]1C(=O)CC[C@]4(O)C(C2)N(CCc2ccccc2)CC[C@@]314` came in with an IC50 in assay [1] of 5.7 µM.

Turning to `O=C1CC[C@]2(O)[C@@H]3Cc4ccc(O)c5c4[C@]2(CCN3CC2CC2)[C@@H]1O5`, the IC50 in assay [1] was 106 µM; in assay [2], more than 400 µM.

These data come from ChEMBL document CHEMBL3576818, “Structure-Activity Relationships of (+)-Naltrexone-Inspired Toll-like Receptor 4 (TLR4) Antagonists” (J Med Chem, 2015).
